Experimental data: patent US5622976A, “Oxadiazole derivatives having acetylcholinesterase-inhibitory and muscarinic agonist activity” (priority 1991, dated 1997)

Molecular target: T1, acetylcholinesterase (Rattus norvegicus, UniProt P37136)
T1 construct: obtained from rat's corpus striatum; from tissue; host or cells: rat corpus striatum
Test: Inhibition of acetylcholinesterase (enzyme assay)
Format: biochemical
Settings: acetylcholinesterase from rat's corpus striatum
Method: The ability to inhibit acetylcholinesterase was determined by the method (enzyme assay) described in Clinica Chimica Acta, 115 (1981) 163-170. The acetylcholinesterase used in this test was obtained from rat's corpus striatum.

T1 sequence (P37136 32-614): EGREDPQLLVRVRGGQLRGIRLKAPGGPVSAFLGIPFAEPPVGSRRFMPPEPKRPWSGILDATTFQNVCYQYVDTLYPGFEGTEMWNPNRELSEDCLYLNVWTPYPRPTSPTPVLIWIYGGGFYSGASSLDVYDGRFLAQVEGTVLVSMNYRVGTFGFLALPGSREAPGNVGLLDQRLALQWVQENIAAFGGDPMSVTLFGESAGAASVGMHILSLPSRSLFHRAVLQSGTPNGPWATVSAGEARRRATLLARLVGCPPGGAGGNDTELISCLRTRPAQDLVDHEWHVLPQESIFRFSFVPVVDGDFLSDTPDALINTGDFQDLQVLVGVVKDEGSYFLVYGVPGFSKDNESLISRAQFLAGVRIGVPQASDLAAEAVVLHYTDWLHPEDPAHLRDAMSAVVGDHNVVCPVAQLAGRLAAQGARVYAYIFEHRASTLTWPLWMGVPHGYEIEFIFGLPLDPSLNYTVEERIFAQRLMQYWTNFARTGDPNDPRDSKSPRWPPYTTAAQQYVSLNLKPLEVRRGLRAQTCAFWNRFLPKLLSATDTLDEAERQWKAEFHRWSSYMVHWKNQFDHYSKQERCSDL

O=C(NCCC1CCN(Cc2ccccc2)CC1)c1noc(C2CN3CCC2CC3)n1 (centres unmarked) [(a)]
IC50: 8 nM

O=C(NCCC1CCN(Cc2ccccc2)CC1)c1noc(-c2ccc([N+](=O)[O-])cc2)n1 [(b)]
IC50: 1.7 nM
